Read-outs that look alike come from different tables or passages of the source.
Tests used:
[1] = target: T1, free Btk protein from Ramos cells (Homo sapiens, UniProt Q06187); assay: Btk target site occupancy ELISA assay; format: cell-based; settings: for IC50: ELISA
T1 construct: endogenous in cells; host or cells: Ramos cells (ATCC)
Method: (§1) Ramos cells were treated with Compound I-1 at indicated concentrations for 1 h, followed by stimulation with 6 μg/mL of IgM for 30 mm, and then lysed. Lysates were incubated with Compound I-21 (biotin labeled) at a final concentration of 1 μM in a PBS, 0.05% Tween-20, 1% BSA solution while shaking for 1 h at room temperature. Samples were transferred to a streptavidin-coated 96-well ELISA plate and mixed while shaking for 1 h at room temperature. The Btk antibody (BD 611116, 1:1000 dilution in PBS+0.05% Tween-20+0.5% BSA) was then applied and incubated for 1 h at room temperature. After wash, goat anti-mouse-HRP (Pierce 31432, 1:1000 dilution in PBS+0.05% Tween-20+0.5% BSA) was added and incubated for 1 h at room temperature. The ELISA was developed with addition of tetramethyl benzidine (TMB) followed by Stop Solution and read at OD 450 nm.
as §1, with “Compounds” for “Compound I-1”, “anti-IgM” for “IgM”, “diluted” for “dilution”, “tetramethylbenzidine” for “tetramethyl benzidine”

[2] = target: T2, Btk (Tyr223) phosphorylation in Ramos cells (Homo sapiens, UniProt Q06187); assay: Western blotting assay for Btk (Example 73); format: cell-based; settings: 45 min, 6 μg/mL anti-IgM, read-out: Btk Inhibition
T2 construct: endogenous in cells; host or cells: Ramos cells (ATCC)
T2 sequence (Q06187 whole entry): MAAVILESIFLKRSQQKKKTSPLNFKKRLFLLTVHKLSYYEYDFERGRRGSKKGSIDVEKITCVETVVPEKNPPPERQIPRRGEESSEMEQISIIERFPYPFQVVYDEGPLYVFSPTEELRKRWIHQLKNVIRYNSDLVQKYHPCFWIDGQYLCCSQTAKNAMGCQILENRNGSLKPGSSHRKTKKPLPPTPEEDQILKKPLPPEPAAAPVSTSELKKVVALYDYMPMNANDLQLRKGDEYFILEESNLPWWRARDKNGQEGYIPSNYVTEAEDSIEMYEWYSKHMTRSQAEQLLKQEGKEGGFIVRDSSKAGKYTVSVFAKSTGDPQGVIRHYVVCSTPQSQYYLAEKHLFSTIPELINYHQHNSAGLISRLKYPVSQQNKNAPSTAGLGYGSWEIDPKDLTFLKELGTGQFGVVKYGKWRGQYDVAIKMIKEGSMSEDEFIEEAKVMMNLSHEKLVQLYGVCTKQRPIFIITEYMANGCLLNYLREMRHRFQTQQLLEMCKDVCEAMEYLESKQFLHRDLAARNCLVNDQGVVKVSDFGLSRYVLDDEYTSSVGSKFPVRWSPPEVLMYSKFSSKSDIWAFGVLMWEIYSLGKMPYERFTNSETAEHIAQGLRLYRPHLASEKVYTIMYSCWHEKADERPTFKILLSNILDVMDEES
In short: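 Ramos cells pre-treated with compound for 45 min at room temperature, then stimulated with 6 μg/mL anti-IgM for 30 min and lysed. Phospho-Btk (Tyr223) measured by Western blot band densitometry; IC50 fitted by non-linear regression.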

T1 sequence (Q06187 whole entry): as above

Q: How did the IC50 ([1]; 1 h, read-out: Btk Occupancy Assay (IC50)) turn out when C=CC(=O)Nc1cccc(Oc2nc(Nc3ccc(N4CCN(C)CC4)cc3)ncc2OC)c1 [Compound I-1, N-(3-(5-methoxy-2-(4-(4-methylpiperazin-1-yl)phenylamino)pyrimidin-4-yloxy)phenyl)acrylamide] was run?
A: The IC50 was no more than 10 nM.

Q: What about the “OD 450 (average)” value ([1]; Compound I-1 0.2 nM) of the same compound?
A: Its value is 0.1686.

Q: What about the “free Btk” value ([1]; Compound I-1 0.2 nM) of the same compound?
A: Its value is 2414 pg.

Q: And the “OD 450 (average)” value ([1]; Compound I-1 0.7 nM)?
A: Its value is 0.1811.

Q: And the “free Btk” value ([1]; Compound I-1 0.7 nM)?
A: Its value is 2592 pg.

Q: What about the “OD 450 (average)” value ([1]; Compound I-1 3 nM) of the same compound?
A: The value was 0.1219.

Q: What about the “free Btk” value ([1]; Compound I-1 3 nM) of the same compound?
A: Its value is 1747 pg.

Q: What about the “OD 450 (average)” value ([1]; Compound I-1 12 nM) of the same compound?
A: The value was −0.0161.

Q: What about the “free Btk” value ([1]; Compound I-1 12 nM) of the same compound?
A: The value was -224 pg.

Q: And the “OD 450 (average)” value ([1]; Compound I-1 47 nM)?
A: Its value is 0.0114.

Q: And the “free Btk” value ([1]; Compound I-1 47 nM)?
A: Its value is 168 pg.

Q: And the “OD 450 (average)” value ([1]; Compound I-1 188 nM)?
A: The value was −0.0207.

Q: What about the “free Btk” value ([1]; Compound I-1 188 nM) of the same compound?
A: The value was -290 pg.

Q: What about the “OD 450 (average)” value ([1]; Compound I-1 750 nM) of the same compound?
A: The value was −0.0456.

Q: And the “free Btk” value ([1]; Compound I-1 750 nM)?
A: Its value is -646 pg.

Q: What about the “OD 450 (average)” value ([1]; Compound I-1 3000 nM) of the same compound?
A: Its value is −0.0487.

Q: And the “free Btk” value ([1]; Compound I-1 3000 nM)?
A: The value was -689 pg.

Q: What about the IC50 ([1]; read-out: BTK target site occupancy IC50) of the same compound?
A: The IC50 was 0.5 nM.

Q: And the “occupancy of the Btk proteins” value ([1]; increasing concentrations)?
A: The value was “dose-dependent occupancy of the BTK proteins correlates with its inhibitory activity of BTK kinase”.

Q: And the IC50 [2]?
A: The IC50 was no more than 10 nM.

Source: patent US9920074B2 (ACEA BIOSCIENCES INC., priority 2013, dated 2018)
